Where a name gives a salt, the structure may show the parent alone. Values belong to the compound of their own block, whether it stands above or below them.
Legend:
[1] = pH of the rinse water after adding rinse conditioner to the last rinse cycle of a machine wash; type: physicochemical; settings: 90 mls rinse conditioner (about 200 ppm amine) in last rinse cycle
Experimental: (§1) The performance and stability of several amine containing liquid fabric softening compositions was tested as follows:
(§2) A wash load of 1.25 kg of terry towelling and 1.25 kg of cotton sheeting fabrics was washed at 40°C in a Miele 756 automatic with 100g of Persil Automatic (UK).

[2] = pH of the undiluted liquid rinse conditioner; settings: rinse conditioner 5wt% Armeen M2HT, 1wt% tallow 35EO
Experimental: as §1, §2

[3] = Stability of the undiluted liquid rinse conditioner; settings: rinse conditioner 5wt% Armeen M2HT, 1wt% tallow 35EO
Experimental: as §1, §2

[4] = pH adjuster conc 0.3 M in product
[5] = pH adjuster conc 0.5 M in product
[6] = pH adjuster conc 0.9 M in product
[7] = pH adjuster conc 0.7 M in product
[8] = pH adjuster conc 1.0 M in product
[9] = pH adjuster conc 0.4 M in product
[10] = pH adjuster conc 0.6 M in product

- rinse pH [1, 4]: 5.6
- rinse pH [1, 5]: 4.5
- rinse pH [1, 6]: 3.8
SMILES: O=C(O)CC(O)(CC(=O)O)C(=O)O [Citric, citric acid]

- undiluted product pH ([2]; pH adjuster conc 0.7 M): 0.2
- undiluted product pH ([2]; pH adjuster conc 1.0 M): 0.1
- rinse pH [1, 7]: 5.2
- rinse pH [1, 6]: 4.4
- rinse pH [1, 8]: 3.7
SMILES: Cl [HCl]

- undiluted product pH ([2]; pH adjuster conc 0.7 M): 1.5
- rinse pH [1, 5]: 5.4
- rinse pH [1, 7]: 4.7
- rinse pH [1, 6]: 3.4
- undiluted product stability ([3]; pH adjuster conc 0.7 M): stable
SMILES: O=C(O)CC(=O)O [Malonic, malonic acid]

- undiluted product pH ([2]; pH adjuster conc 0.6 M): 0.8
- rinse pH [1, 4]: 6.0
- rinse pH [1, 9]: 4.8
- rinse pH [1, 10]: 3.3
- undiluted product stability ([3]; pH adjuster conc 0.6 M): unstable
SMILES: O=C(O)C(=O)O [Oxalic, Oxalic acid]

- undiluted product pH ([2]; pH adjuster conc 1.0 M): 2.3
- undiluted product pH ([2]; pH adjuster conc 1.5 M): 2.2
- rinse pH [1, 8]: 4.5
- rinse pH ([1]; pH adjuster conc 1.5 M in product): 4.2
- undiluted product stability ([3]; pH adjuster conc 1.0 M): stable
- undiluted product stability ([3]; pH adjuster conc 1.5 M): stable
SMILES: O=C(O)CCC(=O)O [Succinic, succinic acid]

- rinse pH [1, 9]: 5.7
- rinse pH [1, 5]: 4.5
- rinse pH ([1]; pH adjuster conc 0.8 M in product): 3.9
SMILES: O=C(O)C(O)C(O)C(=O)O (centres unmarked) [Tartaric, tartaric acid]

SMILES: O=P(O)(O)O [o-H₃PO₄, orthophosphoric acid]
- undiluted product pH ([2]; pH adjuster conc 0.6 M): 1.3
- undiluted product pH ([2]; pH adjuster conc 1.2 M): 0.8
- rinse pH [1, 10]: 5.6
- rinse pH [1, 6]: 4.6
- rinse pH ([1]; pH adjuster conc 1.2 M in product): 3.8

Reference: patent EP0417987B1, “Fabric softening” (UNILEVER PLC, priority 1989, dated 1991)
